By IC50 is commonly meant the concentration at which inhibition is half-maximal.

The target of assay [1] is T1, human SLC6A19 (Homo sapiens, UniProt Q695T7).
T1 construct: expressed in transfected cells
T1 sequence (Q695T7 1-634): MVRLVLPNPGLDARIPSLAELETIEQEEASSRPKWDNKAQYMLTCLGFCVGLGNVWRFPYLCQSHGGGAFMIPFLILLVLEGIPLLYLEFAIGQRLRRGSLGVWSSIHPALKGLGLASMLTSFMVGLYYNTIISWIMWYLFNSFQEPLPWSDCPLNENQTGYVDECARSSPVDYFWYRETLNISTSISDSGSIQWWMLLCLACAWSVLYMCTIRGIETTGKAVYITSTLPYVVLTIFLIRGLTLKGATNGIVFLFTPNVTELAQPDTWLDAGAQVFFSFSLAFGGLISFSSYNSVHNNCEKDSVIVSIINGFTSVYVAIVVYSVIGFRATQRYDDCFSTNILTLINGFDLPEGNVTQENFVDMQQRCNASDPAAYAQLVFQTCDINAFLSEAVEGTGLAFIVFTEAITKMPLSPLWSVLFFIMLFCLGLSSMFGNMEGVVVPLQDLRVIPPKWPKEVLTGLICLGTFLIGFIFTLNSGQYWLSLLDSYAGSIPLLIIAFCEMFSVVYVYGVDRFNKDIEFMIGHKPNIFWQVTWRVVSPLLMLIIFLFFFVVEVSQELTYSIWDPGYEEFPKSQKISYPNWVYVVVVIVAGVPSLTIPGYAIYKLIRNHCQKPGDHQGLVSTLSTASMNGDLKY
T1 sequence (Q9HBJ8 15-222 partner): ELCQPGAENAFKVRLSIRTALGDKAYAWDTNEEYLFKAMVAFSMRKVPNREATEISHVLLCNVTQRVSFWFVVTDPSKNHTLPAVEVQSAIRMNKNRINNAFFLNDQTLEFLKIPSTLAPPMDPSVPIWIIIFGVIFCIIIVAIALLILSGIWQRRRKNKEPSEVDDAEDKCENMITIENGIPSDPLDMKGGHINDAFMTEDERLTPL
The assay is described as follows: Example B-1: L-[3H]leucine uptake, liquid scintillation, in CHO cells with doxycycline-inducible expression of human SLC6A19 and TMEM27. Type of assay: cell-based. As to conditions: read-out: SLC6A19_Radioligand Uptake Assay IC50. The protocol: CHO cells with doxycycline-inducible expression of human SLC6A19 and TMEM27 were maintained in T150 cell culture treated flasks using cell culture media, which consisted of 1×DMEM/F12 (Gibco, 11330057), 10% Tet System-Approved FBS (Gibco, A4736401), 100 U/mL Penicillin-Streptomycin (Gibco, 15140122), 1×GlutaMAX™ Supplement (Gibco, 35050061), 1 mM Sodium Pyruvate (Gibco, 11360070), 1.1 mg/mL Sodium Bicarbonate (Gibco, 25080094), 5 μg/mL Blasticidin (InvivoGen, ant-bl-1), 150 μg/mL Hygromycin B Gold (InvivoGen, ant-hg-5), and 500 μg/mL G418 (Sigma-Aldrich, G8168-100 mL). In preparation for the assay, this media was aspirated and 5 mL of TryμLE™ Express Enzyme (Gibco, 12605010) was added to each flask to initiate cell dissociation. The flasks were then incubated (humidified, 37° C. with 5% CO2) for 2 minutes. After incubation, 10 mL of pre-warmed cell culture media was added to each flask. The cell suspension was collected and centrifuged for 5 minutes at 200xg.
The supernatant was aspirated and the pellet was resuspended in 5 mL pre-warmed cell culture media. The resuspended cells were counted using the Countess Cell Counting Chamber (Invitrogen) and the cell concentration of the suspension was readjusted to 1 million live cells/mL using pre-warmed cell culture media. 25 uL/well (25,000 cells/well) of readjusted cell suspension was dispensed into Poly-D-Lysine 384-well white/clear plates (Corning, 354660) using a MultiDrop Combi (Thermo Electron Corp). To induce expression of Human SLC6A19 and TMEM27, 25 uL/well of cell culture media containing 2 μg/mL doxycycline was added to the first 23 columns of each plate resulting in a final concentration of […] doxycycline. 25 μL/well of cell culture media was added to the last column of each plate, to act as negative control wells for Human SLC6A19 and TMEM27 expression. Assay plates were then incubated (humidified, 37° C. with 5% CO2) for 18 hours. After incubation, the media was aspirated and the wells were washed 4 times with pre-warmed HBSS (Sigma-Aldrich, H8264-1L) using an Apricot S-Pipette S2 (Apricot Designs), such that 5 uL/well HBSS was remaining at the end of each wash. […] At this step, the final in-well DMSO concentration in the assay plate is 0.5%. All compounds were plated in a duplicate 8-point dilution series that consisted of 3-fold dilutions. […] Afterwards, 15 uL/well of 3.2 mM hot:cold leucine solution (1:15000 ratio of L-[3,4,5-3H(N)] Leucine (Perkin Elmer, NET460001MC) to L-Leucine (Sigma-Aldrich, L8912-25G) diluted with HBSS (Sigma-Aldrich, H8264-1L)) was added using the Viaflo 384 (Integra), for a final concentration of 1.6 mM hot:cold leucine solution. The plates were then incubated (humidified, 37° C. with 5% CO2) for 20 minutes to conduct the uptake reaction. Immediately after the incubation, the plates were washed 4 times with HBSS (Sigma-Aldrich, H8264-1L) using the ELx405 Microplate Washer (Biotek) to terminate the uptake reaction. After the washes, 50 uL/well Ultima Gold Scintillation Cocktail (Perkin Elmer, 6013326) was added to each well using the Viaflo 384 (Integra). The plates were then incubated (humidified, 37° C. with 5% CO2) on a plate shaker at 200 rpm for 2 hours. After incubation, the plates were removed from the shaker and kept at room temperature for 15 minutes.
Liquid scintillation analysis was performed using the MicroBeta2 Microplate Counter (Perkin Elmer). Activity (%) was derived by normalizing the average of positive control compound treated wells to 0% and the average of DMSO (negative control) wells to 100%. Collaborative Drug Discovery software was used for graphing data.

Assay [2] concerns the target T1, human SLC6A19. The assay is described as follows: Example B2: 13C6,15N-isoleucine uptake, RapidFire mass spectrometry, in CHO cells with doxycycline-inducible expression of human SLC6A19 and TMEM27. The class given is cell-based. As to conditions: read-out: SLC6A19_RapidFire Uptake Assay IC50. In outline:
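Labelled isoleucine (13C6,15N; 2 mM added) was given 20 min at 37 °C, following a 20-min compound pre-treatment (10-point 2-fold series, duplicate). Cells were doxycycline-induced CHO co-expressing human SLC6A19 and TMEM27. Intracellular label was quantified by RapidFire-MS peak areas against a 13C-leucine standard.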

Take `CC(=O)N1CC[C@@H](C)[C@@H](N(C)C(=O)NCc2cc3cc(Cl)ccc3[nH]2)C1` (racemic) [Compound 203, 1-((3R,4R and 3S,4S)-1-acetyl-4-methylpiperidin-3-yl)-3-((5-chloro-1H-indol-2-yl)methyl)-1-methylurea]: the IC50 on human SLC6A19 [1] came to 2170 nM; at human SLC6A19 [2] it was 4870 nM. Take `CC(=O)N1C[C@@H](C)C[C@@H](N(C)C(=O)NCc2cc3cc(Cl)ccc3[nH]2)C1` (racemic) [Compound 243, 1-((3R,5S and 3S,5R)-1-acetyl-5-methylpiperidin-3-yl)-3-((5-chloro-1H-indol-2-yl)methyl)-1-methylurea]: the figures for the IC50 at human SLC6A19 [1] and on human SLC6A19 [2] were 262 nM and 153 nM, respectively. Taken in the same sequence, the figures for `CC(=O)N1C[C@@H](N(C)C(=O)NCc2cc3cc(Cl)ccc3[nH]2)CC[C@H]1C` (single isomer, unassigned) [Compound 193, 1-((3S,6R or 3R,6S)-1-acetyl-6-methylpiperidin-3-yl)-3-((5-chloro-1H-indol-2-yl)methyl)-1-methylurea] were more than 50000 nM and more than 50000 nM. On the same counts, the results for `CN(C(=O)NCc1cc2cc(Cl)ccc2[nH]1)[C@@H]1CCCN(C(=O)C2CC(O)C2)C1` (stereo partly drawn) [Compound 119, (R)-3-((5-chloro-1H-indol-2-yl)methyl)-1-(1-(3-hydroxycyclobutane-1-carbonyl)piperidin-3-yl)-1-methylurea] are 629 nM and 839 nM. Taken in the same sequence, the figures for `CN(C(=O)NCc1cc2cc(Cl)ccc2[nH]1)[C@@H]1CCCN(C(=O)CC2CCC2)C1` [Compound 120, (R)-3-((5-chloro-1H-indol-2-yl)methyl)-1-(1-(2-cyclobutylacetyl)piperidin-3-yl)-1-methylurea] were 574 nM and 949 nM. In the case of `CN(C(=O)NCc1cc2cc(Cl)ccc2[nH]1)[C@@H]1CCCN(C(=O)C2CC(CO)C2)C1` (stereo partly drawn) [Compound 121, (R)-3-((5-chloro-1H-indol-2-yl)methyl)-1-(1-(3-(hydroxymethyl)cyclobutane-1-carbonyl)piperidin-3-yl)-1-methylurea], the IC50 was 280 nM on human SLC6A19 [1] and 405 nM on human SLC6A19 [2]. On the same counts, the results for `CC(=O)N1CCC[C@@H](N(C)C(=O)NCc2cc3cc(Cl)c(OCc4cc(C)on4)cc3[nH]2)C1` [Compound 135, (R)-1-(1-acetylpiperidin-3-yl)-3-((5-chloro-6-((5-methylisoxazol-3-yl)methoxy)-1H-indol-2-yl)methyl)-1-methylurea] are 162 nM and 326 nM. Take `CCN(C(=O)NCc1cc2cc(Cl)c(OCc3ccon3)cc2[nH]1)[C@@H]1CCCN(C(C)=O)C1` [Compound 137, (R)-1-(1-acetylpiperidin-3-yl)-3-((5-chloro-6-(isoxazol-3-ylmethoxy)-1H-indol-2-yl)methyl)-1-ethylurea]: the IC50 on human SLC6A19 [1] is 359 nM; at human SLC6A19 [2], 273 nM. Taken in the same sequence, the figures for `CC(=O)N1CCC[C@@H](N(C)C(=O)NCc2cc3cc(Cl)ccc3[nH]2)C1` [Compound 147, (R)-1-(1-acetylpiperidin-3-yl)-3-((5-chloro-1H-indol-2-yl)methyl)-1-methylurea] were 183 nM and 195 nM. On the same counts, the results for `CCN(C(=O)NCc1cc2cc(Cl)ccc2[nH]1)[C@@H]1CCCN(C(C)=O)C1` [Compound 163, (R)-1-(1-acetylpiperidin-3-yl)-3-((5-chloro-1H-indol-2-yl)methyl)-1-ethylurea] are 145 nM and 49.4 nM.

With `CNC(=O)N1CCC[C@@H](N(C)C(=O)NCc2cc3cc(Cl)ccc3[nH]2)C1` [Compound 171, (R)-3-(3-((5-chloro-1H-indol-2-yl)methyl)-1-methylureido)-N-methylpiperidine-1-carboxamide], the IC50 on human SLC6A19 [1] was found to be 150 nM; at human SLC6A19 [2] it was 80.6 nM.

As for `Cc1ocnc1C(=O)N1CCC[C@@H](N(C)C(=O)NCc2cc3cc(Cl)ccc3[nH]2)C1` [Compound 187, (R)-3-((5-chloro-1H-indol-2-yl)methyl)-1-methyl-1-(1-(5-methyloxazole-4-carbonyl)piperidin-3-yl)urea], the IC50 was found to be 1230 nM at human SLC6A19 [1] and 2770 nM at human SLC6A19 [2].

In the case of `CN(C(=O)NCc1cc2cc(Cl)ccc2[nH]1)[C@@H]1CCCN(C(=O)Cc2ccncc2)C1` [Compound 188, (R)-3-((5-chloro-1H-indol-2-yl)methyl)-1-methyl-1-(1-(2-(pyridin-4-yl)acetyl)piperidin-3-yl)urea], the IC50 at human SLC6A19 [1] is 656 nM; at human SLC6A19 [2], 947 nM. For the molecule `CN(C(=O)NCc1cc2cc(Cl)ccc2[nH]1)[C@@H]1CCCN(C(=O)c2ccc(O)cc2)C1` [Compound 189, (R)-3-((5-chloro-1H-indol-2-yl)methyl)-1-(1-(4-hydroxybenzoyl)piperidin-3-yl)-1-methylurea], the IC50 stood at 264 nM at human SLC6A19 [1] and 380 nM at human SLC6A19 [2]. Taken in the same sequence, the figures for `CN(C(=O)NCc1cc2cc(Cl)ccc2[nH]1)[C@@H]1CCCN(C(=O)c2cccc(O)c2)C1` [Compound 190, (R)-3-((5-chloro-1H-indol-2-yl)methyl)-1-(1-(3-hydroxybenzoyl)piperidin-3-yl)-1-methylurea] were 483 nM and 578 nM.

As for `CN(C(=O)NCc1cc2cc(Cl)ccc2[nH]1)[C@@H]1CCCN(C(=O)c2ccn[nH]2)C1` [Compound 191, (R)-1-(1-(1H-pyrazole-5-carbonyl)piperidin-3-yl)-3-((5-chloro-1H-indol-2-yl)methyl)-1-methylurea], the IC50 on human SLC6A19 [1] turned out to be 151 nM; on human SLC6A19 [2] it was 312 nM. For the molecule `CN(C(=O)NCc1cc2cc(Cl)ccc2[nH]1)[C@@H]1CCCN(C(=O)N2CC(F)(F)C2)C1` [Compound 216, (R)-3-((5-chloro-1H-indol-2-yl)methyl)-1-(1-(3,3-difluoroazetidine-1-carbonyl)piperidin-3-yl)-1-methylurea], the IC50 on human SLC6A19 [1] turned out to be 807 nM. On the same count and under the same terms, the value for `CN(C(=O)NCc1cc2cc(Cl)ccc2[nH]1)[C@@H]1CCCN(C(=O)Cc2cnoc2)C1` [Compound 246, (R)-3-((5-chloro-1H-indol-2-yl)methyl)-1-(1-(2-(isoxazol-4-yl)acetyl)piperidin-3-yl)-1-methylurea] was 1160 nM.
